Read-outs that look alike come from different tables or passages of the source.
Key:
GPR6 = target: T1, GPR6 (Homo sapiens, UniProt P46095); experiment: membrane-based cyclic AMP confirmation assay (Example 4C); assay type: biochemical; conditions: mean +/- standard deviation (number of assays in brackets); read-out: IC50 Values Cyclic AMP Assay Example 4C
T1 construct: expressed in transfected cells; 293 cells are used elsewhere
From the text: Using an independent assay approach to provide confirmation of a directly identified candidate compound as set forth above, it is preferred that a confirmation assay then be utilized. In this case, the preferred confirmation assay is membrane-based cyclic AMP (cAMP) assay.
A modified Flash Plate™ Adenylyl Cyclase kit (New England Nuclear; Cat. No. SMP004A) was utilized for confirmation of candidate compounds directly identified as inverse agonists and agonists to endogenous, constitutively activated orphan GPCRs in accordance with the following protocol.
Transfected stable cells were harvested approximately three days after transfection. Membranes were prepared by homogenization of suspended cells in buffer containing 20 mM HEPES, pH 7.4 and 10 mM MgCl2. Homogenization was performed on ice using a Brinkman Polytron™ for approximately 10 seconds. The resulting homogenate was centrifuged at 20,000 rpm for 20 minutes at 4° C. The resulting pellet was then resuspended in buffer containing 20 mM HEPES, pH 7.4 and 0.1 mM EDTA, homogenized for 10 seconds, followed by centrifugation at 20,000 rpm for 20 minutes at 4° C. The resulting pellet can be stored at −80° C. until utilized. On the day of direct identification screening, the membrane pellet is slowly thawed at room temperature, resuspended in buffer containing 20 mM HEPES, pH 7.4, 100 mM NaCl and 10 mM MgCL2, to yield a final protein concentration of 0.60 mg/ml (the resuspended membranes are placed on ice until use).
Candidate compounds identified as per above (if frozen, thawed at room temperature) were added to plate wells (3 μl/well; 12 μM final assay concentration), together with 50 μl Membrane Protein (30 μg/well) and 50 μl of Assay Buffer. This admixture was then incubated for 30 minutes at room temperature, with gentle shaking.
Following the incubation, 100 μl of Detection Buffer was added to each well, followed by incubation for 2-20 hours. Plates were subsequently aspirated and then counted in a Wallac MicroBeta™ plate reader using “Prot. #31” (as per manufacturer instructions).

GPR6:Gsα-Fusion Protein = target: T2, GPR6:Gsα-Fusion Protein (Homo sapiens, UniProt P46095); experiment: [35S]GTPγS membrane binding assay (Example 4A); assay type: biochemical
T2 construct: expressed in transfected cells
T2 sequence (P46095 with tags, fused parts or gaps): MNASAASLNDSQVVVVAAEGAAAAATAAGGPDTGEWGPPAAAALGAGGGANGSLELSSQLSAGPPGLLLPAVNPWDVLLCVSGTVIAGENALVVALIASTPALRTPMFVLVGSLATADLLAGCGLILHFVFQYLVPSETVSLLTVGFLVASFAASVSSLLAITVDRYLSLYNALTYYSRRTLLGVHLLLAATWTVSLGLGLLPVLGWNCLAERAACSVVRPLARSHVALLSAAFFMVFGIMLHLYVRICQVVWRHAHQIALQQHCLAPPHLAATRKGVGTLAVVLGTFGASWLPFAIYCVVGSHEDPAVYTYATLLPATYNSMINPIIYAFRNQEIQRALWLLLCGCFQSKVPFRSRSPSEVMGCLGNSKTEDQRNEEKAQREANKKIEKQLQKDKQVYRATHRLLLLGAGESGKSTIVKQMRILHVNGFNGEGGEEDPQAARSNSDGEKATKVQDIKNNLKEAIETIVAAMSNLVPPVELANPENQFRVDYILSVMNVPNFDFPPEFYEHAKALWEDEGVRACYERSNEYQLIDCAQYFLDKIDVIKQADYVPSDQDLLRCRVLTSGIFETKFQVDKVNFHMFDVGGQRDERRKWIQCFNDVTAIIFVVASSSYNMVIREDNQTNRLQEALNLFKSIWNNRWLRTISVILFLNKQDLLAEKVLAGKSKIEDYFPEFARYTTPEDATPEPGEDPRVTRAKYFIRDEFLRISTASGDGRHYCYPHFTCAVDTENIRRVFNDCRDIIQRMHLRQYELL
Experimental: The assay plates were then centrifuged at 400 rpm for 15 minutes at room temperature and then subsequently aspirated and counted in a scintillation counter.
Membranes expressing the GPCR6:Gsα-Fusion Protein (see Example 2) and for use in the direct identification of candidate compounds as inverse agonists, agonists or partial agonists were prepared as follows:
All materials were kept on ice throughout the procedure. Firstly, the media was aspirated from a confluent monolayer of cells, followed by rinse with 10 ml cold PBS, followed by aspiration. Thereafter, 5 ml of membrane Scrape Buffer was added to scrape cells; this was followed by transfer of cellular extract into 50 ml centrifuge tubes (centrifuged at 20,000 rpm for 17 minutes at 4° C.). Thereafter, the supernatant was aspirated and the pellet was resuspended in 30 ml Membrane Wash Buffer followed by centrifuge at 20,000 rpm for 17 minutes at 4° C. The supernatant was then aspirated and the pellet resuspended in Binding Buffer. This was then homogenized using a Brinkman polytron™ homogenizer (15-20 second bursts until the all material was in suspension). This is referred to herein as “Membrane Protein”.
Candidate compounds (Tripos, Inc., St. Louis, Mo.) were received in 96-well plates (these can be frozen at −80° C.). Membrane Protein (or membranes with expression vector excluding the GPR6:Gsα-Fusion Protein, as control), were homogenized briefly until in suspension. Protein concentration was then determined using the Bradford Protein Assay set forth above. […] Thereafter, 100 ul GDP Buffer was added to each well of a Wallac Scintistrip™ (Wallac). A 5 ul pin-tool was then used to transfer 5 ul of a candidate compound into such well (i.e., 5 ul in total assay volume of 200 ul is a 1:40 ratio such that the final screening concentration of the candidate compound is 10 uM). Again, to avoid contamination, after each transfer step the pin tool was rinsed in three reservoirs comprising water (1×), ethanol (1×) and water (2×)—excess liquid should be shaken from the tool after each rinse and dried with paper towels and kimwipes™. Thereafter, 50 ul of Membrane Protein was added to each well (a control well comprising membranes without the GPCR Fusion Protein is also utilized), and pre-incubated for 5-10 minutes at room temperature (the plates were covered with foil in that the candidate compounds obtained from Tripos are light sensitive). Thereafter, 50 ul of [^35S]GTPγS (0.6 nM) in Binding Buffer was added to each well, followed by incubation on a shaker for 60 minutes at room temperature (again, in this example, plates were covered with foil). The assay was then stopped by spinning of the plates at 4000 RPM for 15 minutes at 22° C. The plates were then aspirated with an 8 channel manifold and sealed with plastic plate covers. The plates were then read on a Wallac 1450 using setting “Prot. #37” (as per manufacturer instructions).
The initial or “primary” screen designed to directly identify, e.g., human GPR6 receptor inverse agonists, consisted of the membrane-based GTPγS binding assay of Example 4A utilizing membranes prepared from 293 stable cells. Candidate compounds directly identified as inhibiting receptor-mediated increases in GTPγS as set forth below were considered active “leads”.
It is preferred that following such direct identification, IC50 (inverse agonist) or EC50 (agonist) values be determined; those having ordinary skill in the art are credited with utilizing IC50 and EC50 assay protocols of choice. FIG. 4 provides a representative IC50 curve for compound ARE112 using the assay protocol of Example 4A.

[1] = Food/water intake and body weight in 24-hour food deprived rats, oral gavage (PO); assay type: in vivo, rat; conditions: for body weight gain (FIG. 10C): vehicle about 19.5 grams
Experimental: Based upon the in vivo data developed, oral bioavailability of compound ARE112 was determined. The compound was administered by oral gavage at doses ranging from 6.75 to 54 mg/kg. The data presented in FIGS. 9A and 9B support the conclusion that oral administration of ARE112 also decreases food intake in both food-deprived and non-food deprived rats. […] In FIG. 9A, rats were deprived 24 hours prior to oral administration of the compound. In this assay, the vehicle-treated rats at 2.5 hours consumed […] of food while injected rats; particularly rats administered with 27 and 54 mg/kg of ARE 112, ate about 6 and 4 grams, respectively. […] (See, FIG. 9A).
Several other GPR6 inverse agonists were also assessed under 24-hour food deprived conditions, with PO administration. The analogs listed below were tested at 200 μmol/kg, which is equivalent to 54 mg/kg. In addition, ARE114 was also assessed at […]. Data are summarized below in Table C:
In a second assay, tested under the same conditions, several other analogs were assessed at 100 μmol/kg.
In FIG. 10, rats were deprived 24 hours prior to oral administration of the compound. In this assay, analogs ARE130, ARE135, ARE136, and ARE140, were administered at a dose of 100 μmol/kg. Three analogs, particularly, ARE130, ARE136 and ARE140 evidenced a slow intake of food (e.g., about 1 to 1.5 grams every two hours) over an eight hour period post-administration; while the vehicle rat consumed about 2 to 2.5 grams food every two hours. Similar to the vehicle rat, analog ARE135, an opened ring structure, evidenced that over an eight hour period post-administration the rats increasingly consumed about 2.5 grams every two hours. (See, FIG. 10A). Furthermore, the body weight of the vehicle rat and administered rats with analog ARE135 gained about 19.5 grams. On the other hand, the closed ring structures evidenced a decrease in body weight gain as follows: ARE112-6 grams, ARE130-9 grams, ARE136-11 grams and ARE140-14 grams. See, FIG. 10C.

[2] = mean +/- standard deviation (number of assays in brackets), read-out: IC50 Values GTP Assay Example 4A
[3] = 200 μmol/kg PO, Table C, vehicle 14.5
[4] = 200 μmol/kg PO, Table C, vehicle 20.3
[5] = 200 μmol/kg PO, Table C, vehicle 22.9
[6] = mean +/- SD (number of assays), read-out: IC50 Values (Table E, GTP Assay of Example 4A)
[7] = 100 μmol/kg PO, second assay, Table D, vehicle 14.0
[8] = 100 μmol/kg PO, second assay, Table D, vehicle 19.25

T1 sequence (P46095 whole entry): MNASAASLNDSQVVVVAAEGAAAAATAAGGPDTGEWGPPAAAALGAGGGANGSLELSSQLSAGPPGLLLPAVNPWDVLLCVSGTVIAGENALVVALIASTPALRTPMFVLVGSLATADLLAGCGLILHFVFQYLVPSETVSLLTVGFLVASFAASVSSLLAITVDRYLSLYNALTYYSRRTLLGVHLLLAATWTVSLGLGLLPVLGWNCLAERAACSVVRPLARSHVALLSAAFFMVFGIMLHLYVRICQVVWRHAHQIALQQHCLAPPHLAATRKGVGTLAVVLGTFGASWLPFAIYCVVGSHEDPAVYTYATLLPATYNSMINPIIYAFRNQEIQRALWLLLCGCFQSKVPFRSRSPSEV

Row | Structure (SMILES) | IC50 (GPR6) | IC50 (GPR6:Gsα-Fusion Protein; [2]) | also measured
1 | Cc1cccc(C(=O)NC(=S)N2CCNC2=S)c1 [ARE125, N-(2-thioxo-imidazolidine-1-carbothioyl)-3-methylbenzamide] | 120 µM | 3.8 µM | 
2 | O=C(NC(=S)N1CCNC1=S)c1ccon1 [ARE149, N-(2-thioxo-imidazolidine-1-carbothioyl)-isoxazole-3-carboxamide] | 5.83 µM | 2.43 µM | 
3 | O=C(NC(=S)N1CCNC1=S)c1ccc(Cl)cc1 [ARE119, N-(2-thioxo-imidazolidine-1-carbothioyl)-4-chlorobenzamide] | 1.97 µM | 0.45 µM | 
4 | O=C(N=C1SSC2=NCCN21)c1ccc(F)cc1F [ARE134, N-(5,6-dihydro-3H-imidazo[2,1-c]-1,2,4-dithiazol-3-ylidene)-2,4-difluorobenzamide] | 0.19 µM | 0.41 µM | 
5 | O=C(NC(=S)N1CCNC1=S)c1ccc(F)cc1 [ARE127, N-(2-thioxo-imidazolidine-1-carbothioyl)-4-fluorobenzamide] | 0.48 µM | 1.25 µM | 
6 | O=C(NC(=S)N1CCNC1=S)c1ccc(C(F)(F)F)cc1 [ARE115, N-(2-thioxo-imidazolidine-1-carbothioyl)-4-trifluoromethylbenzamide] | 3.65 µM | 1.57 µM | 
7 | O=C(NC(=S)N1CCNC1=S)c1cccc(F)c1 [ARE129, N-(2-thioxo-imidazolidine-1-carbothioyl)-3-fluorobenzamide] | 2.62 µM | 3.19 µM | 

More lines, main results first:

Row | IC50 (GPR6) | IC50 (GPR6:Gsα-Fusion Protein; [2]) | Structure (SMILES) | also measured
8 | 0.2 µM | 0.37 µM | O=C(N=C1SSC2=NCCN21)c1ccc(F)cc1 [ARE128, N-(5,6-dihydro-3H-imidazo[2,1-c]-1,2,4-dithiazol-3-ylidene)-4-fluorobenzamide] | Cumulative Food Intake (g) (8 hr post administration) [1, 3]: 7.93 g; Body Weight Gain (g) (6 hr post administration) [1, 4]: 4.03 g; Cumulative Water Intake (g) (6 hr post administration) [1, 5]: 8.5 g
9 | 0.19 µM | 0.13 µM | O=C(N=C1SSC2=NCCN21)c1cc2ccccc2s1 [ARE140, N-(5,6-dihydro-3H-imidazo[2,1-c]-1,2,4-dithiazol-3-ylidene)-benzothiophen-2-carboxamide] | IC50 (GPR6:Gsα-Fusion Protein; [6]): 0.17 µM; Cumulative Food Intake (g) (8 hr post administration) [1, 7]: 9.6 g; Body Weight Gain (g) (6 hr post administration) [1, 8]: 14.6 g; Cumulative Water Intake (g) (6 hr post administration) [1, 8]: 20.0 g; water drunk (FIG. 10B) ([1]; 100 μmol/kg oral, comparable to vehicle): about 19 grams; body weight gain (FIG. 10C) ([1]; 100 μmol/kg oral): 14 grams
10 | 0.24 µM | 0.22 µM | O=C(N=C1SSC2=NCCN21)c1cccc(F)c1 [ARE130, N-(5,6-dihydro-3H-imidazo[2,1-c]-1,2,4-dithiazol-3-ylidene)-3-fluorobenzamide] | IC50 (GPR6:Gsα-Fusion Protein; [6]): 0.22 µM; Cumulative Food Intake (g) (8 hr post administration) [1, 7]: 9.1 g; Body Weight Gain (g) (6 hr post administration) [1, 8]: 9.5 g; Cumulative Water Intake (g) (6 hr post administration) [1, 8]: 9.5 g; water drunk less than the vehicle animal (FIG. 10B) ([1]; 100 μmol/kg oral): about 10 grams; body weight gain (FIG. 10C) ([1]; 100 μmol/kg oral): 9 grams
11 | 0.27 µM | 0.64 µM | O=C(N=C1SSC2=NCCN21)c1ccc(Cl)cc1 [ARE120, N-(5,6-dihydro-3H-imidazo[2,1-c]-1,2,4-dithiazol-3-ylidene)-4-chlorobenzamide] | Cumulative Food Intake (g) (8 hr post administration) [1, 3]: 9.88 g; Body Weight Gain (g) (6 hr post administration) [1, 4]: 11.4 g; Cumulative Water Intake (g) (6 hr post administration) [1, 5]: 18.5 g
12 | 0.17 µM | 0.44 µM | O=C(N=C1SSC2=NCCN21)c1ccccc1 [ARE114, N-(5,6-dihydro-3H-imidazo[2,1-c]-1,2,4-dithiazol-3-ylidene)-benzamide] | Cumulative Food Intake (g) (8 hr post administration) ([1]; 100 μmol/kg PO, Table C, vehicle 14.5): 10.8 g; Body Weight Gain (g) (6 hr post administration) ([1]; 100 μmol/kg PO, Table C, vehicle 20.3): 13.6 g; Cumulative Water Intake (g) (6 hr post administration) ([1]; 100 μmol/kg PO, Table C, vehicle 22.9): 15.3 g; Cumulative Food Intake (g) (8 hr post administration) [1, 3]: 8.68 g; Body Weight Gain (g) (6 hr post administration) [1, 4]: 6.18 g; Cumulative Water Intake (g) (6 hr post administration) [1, 5]: 10.6 g
13 | 0.14 µM | 0.79 µM | Cc1cccc(C(=O)N=C2SSC3=NCCN32)c1 [ARE126, N-(5,6-dihydro-3H-imidazo[2,1-c]-1,2,4-dithiazol-3-ylidene)-3-methylbenzamide] | 
14 | 0.11 µM | 0.25 µM | O=C(N=C1SSC2=NCCN21)c1ccco1 [ARE144, N-(5,6dihydro-3H-imidazo[2,1-c]-1,2,4-dithiazol-3-ylidene)furan-2-carboxamide] | 
15 | 0.1 µM | 0.35 µM | O=C(N=C1SSC2=NCCN21)c1ccccc1F [ARE132, N-(5,6-dihydro-3H-imidazo[2,1-c]-1,2,4-dithiazol-3-ylidene)-2-fluorobenzamide] | 
